The source of these data is US12509424B2, “Compound and composition as PDGF receptor kinase inhibitor” (NIPPON SHINYAKU CO., LTD., priority 2019, dated 2025).

SMILES strings stand for the structures.

For assay [1], the system named is pulmonary arterial smooth muscle cells. The experiment in a line: Suppression of proliferation of pulmonary arterial smooth muscle cells (PDGF-BB stimulation, BrdU). In kind it is cell-based. The following applies: PASMC, 24 h; healthy human derived pulmonary arterial smooth muscle cells; human PDGF-BB 10 ng/mL stimulation; BrdU uptake after 1 day; test substance final concentration 3 to 10,000 nM; read-out: Human normal PASMC proliferation suppression (PDGF stimulation_IC50). How it is done:
(§1) 1. Preparation of Test Substance
Furthermore, it was diluted by 50 times with distilled water.
2. Measurement of Suppression Action Against Proliferation of Pulmonary Arterial Smooth Muscle Cells
The day after healthy human derived pulmonary arterial smooth muscle cells were seeded onto a 96 well plate using a smooth muscle cell proliferation medium, the proliferation medium was replaced with a 0.1% FBS medium, and the cells were cultured for an additional day. A test substance solution was diluted by 10 times with a medium containing BrdU and human PDGF-BB (final concentration of 10 ng/mL, Sigma-Aldrich) and added to cells in equal amounts so as to reach a final concentration of 3 to 10,000 nM. Also, to the human PDGF-BB negative control, BrdU and 0.1% DMSO solution were added. After culturing for 1 day, the amount of BrdU taken up by the proliferating cells was measured using an anti-BrdU antibody.
(§2) 3. Analysis of Measurement Results

For the next assay, the target named is PDGFR-β (Homo sapiens (Human), UniProt P09619). Description: PDGFR-β tyrosine kinase inhibitory action (HTRF KinEASE-TK). In kind it is biochemical. The following applies: PDGFR-β enzyme 1 ng/μL, 30° C. for 30 minutes; read-out: PDGF-β IC50. On the procedure:
as §1
This DMSO solution was diluted by 8 times with an assay buffer 1 (50 mM HEPES (pH 7.0), 0.02% NaN3, 0.01% Bovine Serum Albumin, 0.1 mM orthovanadate, 1 mM Dithiothreitol, 5 mM MgCl2, and 1 mM MnCl2) and further diluted by 5 times with an assay buffer 2 (50 mM HEPES (pH 7.0), 0.02% NaN3, 0.01% Bovine Serum Albumin, 0.1 mM orthovanadate, 1 mM Dithiothreitol, 5 mM MgCl2, 1 mM MnCl2, and 40 nM Supplemented Enzymatic Buffer (cisbio)).
2. Measurement of PDGFR-β Tyrosine Kinase Inhibitory Action
For the measurement, the HTRF KinEASE-TK kit from Cisbio Bioassays SAS was used. To a 384 well plate, the test substance solution was added at 4 μL each, then 2 μL of a PDGFR-β enzyme solution (final concentration of 1 ng/μL, Carna Biosciences, Inc.) and 4 μL of a substrate solution obtained by adding 0.6 μM ATP to TK substrate-3-biotin (cisbio) were added, and the solution was allowed to react at 30° C. for 30 minutes at a final concentration of the test substance being 0.01 to 10,000 nM.
Thereafter, 10 μL of a detection solution (cisbio) was added to each well and allowed to react at 30° C. for 1 hour. The fluorescence intensity was measured with a microplate reader (Spectra Max M5, Molecular device).
as §2

PDGFR-β, sequence (P09619 33-1106): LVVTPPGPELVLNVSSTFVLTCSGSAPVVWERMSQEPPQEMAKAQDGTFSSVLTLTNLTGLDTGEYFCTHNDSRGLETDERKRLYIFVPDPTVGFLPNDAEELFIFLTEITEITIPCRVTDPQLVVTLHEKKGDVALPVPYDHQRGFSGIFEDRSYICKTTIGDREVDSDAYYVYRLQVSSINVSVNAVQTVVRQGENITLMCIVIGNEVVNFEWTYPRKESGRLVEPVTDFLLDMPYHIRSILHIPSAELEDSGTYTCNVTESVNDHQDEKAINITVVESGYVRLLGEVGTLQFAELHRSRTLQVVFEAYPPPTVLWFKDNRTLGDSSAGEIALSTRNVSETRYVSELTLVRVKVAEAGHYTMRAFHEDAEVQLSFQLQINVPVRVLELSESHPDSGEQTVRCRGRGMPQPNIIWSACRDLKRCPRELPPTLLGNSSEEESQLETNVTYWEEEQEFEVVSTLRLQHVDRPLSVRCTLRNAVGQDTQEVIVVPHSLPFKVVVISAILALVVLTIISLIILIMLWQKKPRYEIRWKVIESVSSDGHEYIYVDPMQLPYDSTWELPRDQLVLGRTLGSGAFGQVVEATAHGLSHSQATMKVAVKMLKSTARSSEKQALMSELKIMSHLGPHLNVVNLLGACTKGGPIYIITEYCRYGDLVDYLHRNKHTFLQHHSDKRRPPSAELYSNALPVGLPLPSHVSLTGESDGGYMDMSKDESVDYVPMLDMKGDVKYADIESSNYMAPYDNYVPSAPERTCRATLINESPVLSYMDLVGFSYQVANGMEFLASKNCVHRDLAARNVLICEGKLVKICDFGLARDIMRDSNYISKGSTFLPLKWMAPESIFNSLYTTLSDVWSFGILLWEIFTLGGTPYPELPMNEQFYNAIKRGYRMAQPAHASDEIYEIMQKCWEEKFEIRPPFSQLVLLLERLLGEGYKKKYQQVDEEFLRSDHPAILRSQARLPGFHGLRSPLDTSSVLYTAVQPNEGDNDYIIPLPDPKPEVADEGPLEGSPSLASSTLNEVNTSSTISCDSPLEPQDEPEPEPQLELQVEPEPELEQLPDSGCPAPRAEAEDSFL

For the compound `COc1cncc(C(=O)Nc2cc(C(=O)N[C@H]3CCCC[C@@H]3O)ccc2C)c1` [Example 49, N-(5-{[(1S,2S)-2-hydroxycyclohexyl]carbamoyl}-2-methylphenyl)-5-methoxypyridine-3-carboxamide], the IC50 in assay [1] turned out to be 250 nM; at PDGFR-β, 120 nM.
Consider `CCOc1cncc(C(=O)Nc2cc(C(=O)N[C@H]3CCCC[C@@H]3O)ccc2C)c1` [Example 50, 5-ethoxy-N-(5-{[(1S,2S)-2-hydroxycyclohexyl]carbamoyl}-2-methylphenyl)pyridine-3-carboxamide], for which the values for the IC50 (in assay [1]; on PDGFR-β) were 270 nM and 61 nM, respectively.
For `Cc1ccc(C(=O)N[C@H]2CCCC[C@@H]2O)cc1NC(=O)c1cncc(Oc2ccccn2)c1` [Example 51, N-(5-{[(1S,2S)-2-hydroxycyclohexyl]carbamoyl}-2-methylphenyl)-5-[(pyridin-2-yl)oxy]pyridine-3-carboxamide], the IC50 in assay [1] worked out at 180 nM; at PDGFR-β, 61 nM.
Turning to `Cc1ccc(C(=O)N[C@H]2CCCC[C@@H]2O)cc1NC(=O)c1cncc(Oc2ncccn2)c1` [Example 52, N-(5-{[(1S,2S)-2-hydroxycyclohexyl]carbamoyl}-2-methylphenyl)-5-[(pyrimidin-2-yl)oxy]pyridine-3-carboxamide], the IC50 in assay [1] was 420 nM; at PDGFR-β, 77 nM.
For `Cc1ccc(C(=O)N[C@H]2CCCC[C@@H]2O)cc1NC(=O)c1cncc(OCC2(C)CC2)c1` [Example 53, N-(5-{[(1S,2S)-2-hydroxycyclohexyl]carbamoyl}-2-methylphenyl)-5-[(1-methylcyclopropyl)methoxy]pyridine-3-carboxamide], the IC50 in assay [1] amounted to 71 nM; on PDGFR-β, 12 nM.
On to `Cc1ccc(C(=O)N[C@H]2CCCC[C@@H]2O)cc1NC(=O)c1cncc(OCC2CC(F)(F)C2)c1` [Example 54, 5-[(3,3-difluorocyclobutyl)methoxy]-N-(5-{[(1S,2S)-2-hydroxycyclohexyl]carbamoyl}-2-methylphenyl)pyridine-3-carboxamide], for which the IC50 in assay [1] was determined as 340 nM; at PDGFR-β it was 40 nM.
The like results for `O=C(N[C@H]1CCCC[C@@H]1O)c1ccc(Cl)c(NC(=O)c2cnc(CC3CC3)s2)c1` [Example 55, N-(2-chloro-5-{[(1S,2S)-2-hydroxycyclohexyl]carbamoyl}phenyl)-2-(cyclopropylmethyl)-1,3-thiazole-5-carboxamide] were, in that order, 69 nM and 83 nM.
For the compound `O=C(Nc1cc(C(=O)N[C@H]2CCCC[C@@H]2O)ccc1F)c1cncc(OCC2CC2)c1` [Example 56, 5-(cyclopropylmethoxy)-N-(2-fluoro-5-{[(1S,2S)-2-hydroxycyclohexyl]carbamoyl}phenyl)pyridine-3-carboxamide], the IC50 in assay [1] stood at 240 nM; on PDGFR-β, 120 nM.
Consider `Cc1ccc(C(=O)N[C@H]2CCCC[C@@H]2O)cc1C#Cc1cncc(NCC2CC2)n1` [Example 72, 3-({6-[(cyclopropylmethyl)amino]pyrazin-2-yl}ethynyl)-N-[(1S,2S)-2-hydroxycyclohexyl]-4-methylbenzamide], for which the IC50 is 70 nM in assay [1] and 10 nM at PDGFR-β.
With `Cc1ncc(C(=O)N[C@H]2CCCC[C@@H]2O)cc1C#Cc1cncc(C2CC2)c1` [Example 73, 5-[(5-cyclopropylpyridin-3-yl)ethynyl]-N-[(1S,2S)-2-hydroxycyclohexyl]-6-methylpyridine-3-carboxamide], the IC50 in assay [1] was 80 nM; at PDGFR-β it was 220 nM.
Regarding `Cc1ccc(C(=O)N[C@H]2CCCC[C@@H]2O)cc1C#Cc1cncc(Br)n1` [Example 74, 3-[(6-bromopyrazin-2-yl)ethynyl]-N-[(1S,2S)-2-hydroxycyclohexyl]-4-methylbenzamide], the values for the IC50 (in assay [1]; on PDGFR-β) were 18 nM and 180 nM, respectively.
For `Cc1ccc(C(=O)N[C@@H](CO)[C@@H](O)c2ccccc2)cc1C#Cc1cncc(Br)c1` [Example 76, 3-[(5-bromopyridin-3-yl)ethynyl]-N-[(1S,2S)-1,3-dihydroxy-1-phenylpropan-2-yl]-4-methylbenzamide], the IC50 in assay [1] is 27 nM; at PDGFR-β, 49 nM.
The like results for `CNc1ncc2c(Nc3cc(C(=O)N[C@H]4CCCC[C@@H]4O)ccc3C)cccc2n1` [Example 82, N-[(1S,2S)-2-hydroxycyclohexyl]-4-methyl-3-{[2-(methylamino)quinazolin-5-yl]amino}benzamide] were, in that order, 72 nM and 27 nM.
As for `Cc1ccc(C(=O)N[C@@H](CO)[C@@H](O)c2ccccc2)cc1N1CCc2nc(N)ncc2C1` [Example 83, 3-(2-amino-7,8-dihydropyrido[4,3-d]pyrimidin-6(5H)-yl)-N-[(1S,2S)-1,3-dihydroxy-1-phenylpropan-2-yl]-4-methylbenzamide], the IC50 in assay [1] came out at 48 nM; on PDGFR-β, 5 nM.
As to `Cc1ccc(C(=O)N[C@H]2CCCC[C@@H]2O)cc1NCc1cnc2[nH]ncc2c1` [Example 109, N-[(1S,2S)-2-hydroxycyclohexyl]-4-methyl-3-{[(1H-pyrazolo[3,4-b]pyridin-5-yl)methyl]amino}benzamide], the IC50 was found to be 170 nM in assay [1] and 46 nM on PDGFR-β.
The matching figures for `Cc1ccc(C(=O)N[C@H]2CCCC[C@@H]2O)cc1NCc1cnc2cccnn12` [Example 110, N-[(1S,2S)-2-hydroxycyclohexyl]-3-{[(imidazo[1,2-b]pyridazin-3-yl)methyl]amino}-4-methylbenzamide]: 240 nM and 350 nM.
The like results for `Cc1ccc(C(=O)N[C@H]2CCCC[C@@H]2O)cc1NCc1cncc(-c2cn3ccnc3cn2)c1` [Example 111, N-[(1S,2S)-2-hydroxycyclohexyl]-3-({[5-(imidazo[1,2-a]pyrazin-6-yl)pyridin-3-yl]methyl}amino)-4-methylbenzamide] were, in that order, 380 nM and 150 nM.
Regarding `CC(=O)Nc1ccc(CNc2cc(C(=O)N[C@H]3CCCC[C@@H]3O)ccc2C)cn1` [Example 116, 3-{[(6-acetamidopyridin-3-yl)methyl]amino}-N-[(1S,2S)-2-hydroxycyclohexyl]-4-methylbenzamide], the IC50 in assay [1] is 120 nM.
Regarding `Cc1ccc(C(=O)N[C@H]2CCCC[C@@H]2O)cc1NCc1ccc(NCC2CC2)nc1` [Example 117, 3-[({6-[(cyclopropylmethyl)amino]pyridin-3-yl}methyl)amino]-N-[(1S,2S)-2-hydroxycyclohexyl]-4-methylbenzamide], the IC50 in assay [1] came to 230 nM; at PDGFR-β it was 79 nM.
The matching figures for `Cc1ccc(C(=O)N[C@H]2CCCC[C@@H]2O)cc1NCc1ccc(-c2ccccn2)nc1` [Example 118, 3-{[([2,2′-bipyridin]-5-yl)methyl]amino}-N-[(1S,2S)-2-hydroxycyclohexyl]-4-methylbenzamide]: 140 nM and 390 nM.
The like results for `Cc1ccc(C(=O)N[C@H]2CCCC[C@@H]2O)cc1NCc1cnn2cccnc12` [Example 119, N-[(1S,2S)-2-hydroxycyclohexyl]-4-methyl-3-{[(pyrazolo[1,5-a]pyrimidin-3-yl)methyl]amino}benzamide] were, in that order, 93 nM and 330 nM.
The matching figures for `Cc1ccc(C(=O)N[C@H]2CCCC[C@@H]2O)cc1NCc1ccc(NC(=O)C2CC2)nc1` [Example 120, 3-[({6-[(cyclopropanecarbonyl)amino]pyridin-3-yl}methyl)amino]-N-[(1S,2S)-2-hydroxycyclohexyl]-4-methylbenzamide]: 34 nM and 20 nM.
Turning to `Cc1ccc(C(=O)N[C@H]2CCCC[C@@H]2O)cc1OC(C)c1cncc(-c2ccccc2)c1` (stereo partly drawn) [Example 172, N-[(1S,2S)-2-hydroxycyclohexyl]-4-methyl-3-[1-(5-phenylpyridin-3-yl)ethoxy]benzamide], the IC50 on PDGFR-β was determined as 190 nM.
Still for that read-out and setting: to `Cc1ccc(C(=O)N[C@H]2CCCC[C@@H]2O)cc1CN(C)c1cncc(-c2ccccc2)c1` [Example 175, N-[(1S,2S)-2-hydroxycyclohexyl]-4-methyl-3-{[methyl(5-phenylpyridin-3-yl)amino]methyl}benzamide] belongs 24 nM.
Turning to `CCN(Cc1cc(C(=O)N[C@H]2CCCC[C@@H]2O)ccc1C)c1cncc(-c2ccccc2)c1` [Example 176, 3-{[ethyl(5-phenylpyridin-3-yl)amino]methyl}-N-[(1S,2S)-2-hydroxycyclohexyl]-4-methylbenzamide], the IC50 at PDGFR-β was 50 nM.
